Assay results from publication PMC3989841 (Journal of nuclear medicine : official publication, Society …, 2013).
“And” between values parts separate entries of the source, which are not always exact repeats. Equal entries are not always repeated.

Key:
[1] = renal extraction; cited from earlier work
[2] = normal renal function; cited from earlier work
[3] = mean ± SD, subjects with chronic kidney disease
[4] = Plasma protein binding; conditions: mean ± SD of 8 subjects with chronic kidney disease
[5] = Percentage injected dose in urine, voided at 30 and 180 min; conditions: for Percentage of injected dose in urine: individual patients 1–8; for Percentage of injected dose in urine, mean ± SD: mean ± SD of 8 subjects
[6] = Red cell; conditions: mean ± SD of 8 subjects with chronic kidney disease
[7] = mean of subjects with reduced renal function

O=C([O-])CN(CCN(CC(=O)[O-])CC(=O)[O-])CCN(CC(=O)[O-])CC(=O)[O-].[99Tc+4] [^99mTc-DTPA, ^99mTc-diethyltriaminepentaacetic acid]
Extraction fraction [1]: approximately 20%

O=C(O)CNC(=O)c1ccccc1[131I] [^131I-OIH, ^131I-o-iodohippuran]
Normal plasma clearance [2]: 472 to 530 mL/min | Relative uptake in the left kidney [3]: 55.5% ± 8.1% | PPB (%), mean ± SD [4]: 71 ± 5% | Percentage of injected dose in urine ([5]; 30 min after injection): 46% and 47% and 24% and 38% and 50% and 42% and 41% and 33% | Percentage of injected dose in urine, mean ± SD ([5]; 30 min after injection): 40 ± 8% | Percentage of injected dose in urine, mean ± SD ([5]; 180 min (3 h) after injection): 78% ± 11% | Percentage of injected dose in urine, mean ± SD ([5]; 180 min (3 h) after injection, listed as OIH): 78 ± 11% | Percentage of injected dose in urine ([5]; 180 min after injection): 81% and 59% and 76% and 98% and 75% and 77% and 79% | RBC (%) (red cell uptake), mean ± SD [6]: 16% ± 2% | RBC (%) (red cell uptake), mean ± SD ([6]; listed as OIH): 16 ± 2% | Mean plasma clearance (not normalised to body surface) [7]: 198 mL/min
